Measurements from EP1902732A1, “PROPHYLACTIC/THERAPEUTIC AGENT FOR HER2-EXPRESSING CANCER” (Takeda Pharmaceutical Company Limited, priority 2005, dated 2006).

Columns and labels:
[1] = system: MDA-MB-231 breast cancer cell; assay: Viable cell count using Cell Counting Kit-F; format: cell-based; conditions: MB231; HER2-nonexpressing cancer; five days of culture
Method: (§1) BT-474 breast cancer cell, MDA-MB-453 breast cancer cell, A549 non-small cell lung cancer cell and LNCaP prostate cancer cell were used as human HER2-expressing cells while MDA-MB-231 breast cancer cell and A498 kidney cancer cell (all purchased from ATCC) were used as HER2-nonexpressing cells. Each of the cells used had been seeded into a 96-plate at 500cells/150 µL/well and cultured overnight. Each of the compounds, i.e., antimycin (final concentrations: 1, 0.1, 0.01 and 0.001 µmol/L), 2,4-dinitrophenol (final concentrations: 0.6, 0.2, 0.06 and 0.02 mmol/L), metformin (final concentrations: 25, 5, 1 and 0.2 mmol/L) and AICAR (final concentrations: 25, 5, 1 and 0.2 mmol/L) was diluted with a medium and added for 50 µL/well at a time to the final concentrations mentioned above. Following five days of culture at 37°C in 5% CO2, the cells were counted using Cell Counting Kit-F (Dojindo Laboratories).
(§2) Viable cell count using Cell Counting Kit-F was carried out by the following method according to the attached instruction. The supernatant was removed from the 96-well plate after five days of culture. Cell Counting Kit-F diluted 1000-fold with an RPMI medium (phenol red-free, serum-free) was added for 100 µL/well at a time. After 30 minutes of reaction at room temperature, fluorescence (excitation wavelength; 480 nm, fluorescent wavelength; 530 nm) was determined with a fluorescent plate reader.
(§3) From the determination results, percentage of the fluorescence level in the wells added with the compound was determined assuming that the fluorescence level in the wells without the addition of the compound (control) is 100%, and the remaining cellular quantity was determined in % with respect to that of the control.
(§4) BT-474 breast cancer cell, MDA-MB-453 breast cancer cell and LNCaP prostate cancer cell were used as human HER2-expressing cells while MDA-MB-231 breast cancer cell and A498 kidney cancer cell (all purchased from ATCC) were used as HER2-nonexpressing cells. Each of the cells used had been seeded into a 96-well plate at 500 cells/150 µL/well and cultured overnight. Troglitazone (final concentrations: 25, 6.25 and 1.56 µmol/L) was diluted with a medium, and added for 50 µL/well at a time to the final concentrations mentioned above. Following five days of culture at 37°C in 5% CO2, the cells were counted using Cell Counting Kit-F (Dojindo Laboratories).
as §3, with “troglitazone” for “the compound”

A498 kidney cancer cell = assay: Viable cell count using Cell Counting Kit-F; format: cell-based; conditions: A498; HER2-nonexpressing cancer; five days of culture
Method: as §1, §2, §3, §4
as §3, with “troglitazone” for “the compound”

[2] = system: MDA-MB-453 breast cancer cell; assay: Viable cell count using Cell Counting Kit-F; format: cell-based, human; conditions: MB453; HER2-expressing cancer; five days of culture
Method: as §1, §2, §3, §4
as §3, with “troglitazone” for “the compound”

[3] = system: BT-474 breast cancer cell; assay: Viable cell count using Cell Counting Kit-F; format: cell-based, human; conditions: BT474; HER2-expressing cancer; five days of culture
Method: as §1, §2, §3, §4
as §3, with “troglitazone” for “the compound”

[4] = system: LNCaP prostate cancer cell; assay: Viable cell count using Cell Counting Kit-F; format: cell-based, human; conditions: LNCaP; HER2-expressing cancer; five days of culture
Method: as §1, §2, §3, §4
as §3, with “troglitazone” for “the compound”

Akt = assay: Western blotting of phosphorylated Akt in BT-474 cells; format: cell-based, human; conditions: Example 2, 4-fold dilution series from 1 µmol/L in 5 steps, 2 hours
Method: (§5) Human HER2-expressing human breast cancer cell line BT-474 (purchased from American Tissue Culture Collection (ATCC)) was seeded into a 24-multiwell plate (BT-474: 1.2 x 10^5 cells/well), and cultured overnight in a carbon dioxide gas incubator (5% CO2, 37°C). A 4-fold dilution series of a mitochondrial respiratory chain complex inhibiting compound (complex I: rotenone, complex III: antimycin, complex V: oligomycin: Wako Pure Chemical Industries) was added starting from a final concentration of 1 µmol/L in 5 steps while continuing culture. After 2 hours, the broth was removed, and the cells were lysed with an SDS sample buffer (200 µL). Western blotting analysis was performed as follows. Specifically, this cell lysate (8 µL) was separated by an SDS-PAGE method (gel concentration: 7.5-15%) (Analytical Biochemistry, No. 166, pp. 368-379, 1987), and transferred to a nitrocellulose membrane (BioRad). Then, an antibody specific to phosphorylated HER2 (Cell signaling technology, Code# 2244), an anti-phosphorylated Akt antibody specific to downstream antiapoptotic signal transducing molecule Akt (Cell signaling technology, Code# 9271) and an anti-phosphorylated MAPK antibody specific to downstream proliferation signal transducing molecule MAPK (Cell signaling technology, Code# 9101) were used to detect the antibody with an ECL system (Amersham) to quantify the amount of phosphorylated protein by an image analysis.
(§6) Human HER2-expressing human cancer cell line BT-474 (purchased from ATCC) was seeded into a 24-multiwell plate (1.2 x 10^5 cells/well) and cultured overnight in a carbon dioxide gas incubator (20% O2, 5% CO2, 37°C). A 3-fold dilution series of metformin that activates AMPK (The Journal of Biological Chemistry, Vol. 279, No. 42, pp. 43940-43951, 2004) was added starting from a final concentration of 15 mmol/L in 5 steps while continuing culture. Two hours later, the broth was removed and the cells were lysed with an SDS sample buffer (200 µL). This cell lysate (8 µL) was separated by an SDS-PAGE method (gel concentration: 7.5-15%) (Analytical Biochemistry, No. 166, pp. 368-379, 1987). Then, western blotting analysis was performed in the same manner as in Example 1 to quantify phosphorylated HER2, phosphorylated Akt and phosphorylated MAPK.

MAPK = assay: Western blotting of phosphorylated MAPK in BT-474 cells; format: cell-based, human; conditions: Example 2, 4-fold dilution series from 1 µmol/L in 5 steps, 2 hours
Method: as §5, §6

Row | Compound | minimum concentrations for inhibiting cell proliferation for 50% or more [1] | minimum concentrations for inhibiting cell proliferation for 50% or more (A498 kidney cancer cell) | minimum concentrations for inhibiting cell proliferation for 50% or more [2] | minimum concentrations for inhibiting cell proliferation for 50% or more [3] | minimum concentrations for inhibiting cell proliferation for 50% or more [4] | Akt phosphorylation (Akt) | MAPK phosphorylation (MAPK)
1 | O=[N+]([O-])c1ccc(O)c([N+](=O)[O-])c1 [2,4-dinitrophenol] | 0.2 mmol/L | 0.2 mmol/L | <0.02 mmol/L | <0.02 mmol/L | <0.02 mmol/L |  | 
2 | antimycin | 1e-05 mmol/L | >0.0001 mmol/L | 1e-06 mmol/L | 1e-06 mmol/L | 1e-06 mmol/L | suppressions of Akt and MAPK phosphorylations were also confirmed | suppressions of Akt and MAPK phosphorylations were also confirmed
